Experimental data reported in ChEMBL document CHEMBL3217482, “Synthesis and biological evaluation of novel 1-aryl, 5-(phenoxy-substituted)aryl-1,4-pentadien-3-one derivatives” (Medchemcomm, 2011).

Key:
[1] = test system: PC-3; assay: Antiproliferative against human PC3 cells assessed as growth inhibition at 1 uM after 72 hrs by MTT assay relative to control; assay type: functional; conditions: PC-3, 72 h, read-out: GI
[2] = test system: Bcap37; assay: Antiproliferative against human Bcap37 cells assessed as growth inhibition after 72 hrs by MTT assay; assay type: functional, cell-based; conditions: Bcap37, 72 h
[3] = test system: PC-3; assay: Antiproliferative against human PC3 cells assessed as growth inhibition at 10 uM after 72 hrs by MTT assay relative to control; assay type: functional; conditions: PC-3, 72 h, read-out: GI
[4] = Antiproliferative against human BGC823 cells assessed as growth inhibition at 1 uM after 72 hrs by MTT assay relative to control; assay type: functional; conditions: BGC-823, 72 h, read-out: GI
[5] = test system: Bcap37; assay: Antiproliferative against human Bcap37 cells assessed as growth inhibition at 1 uM after 72 hrs by MTT assay relative to control; assay type: functional; conditions: Bcap37, 72 h, read-out: GI
[6] = test system: Bcap37; assay: Antiproliferative against human Bcap37 cells assessed as growth inhibition at 10 uM after 72 hrs by MTT assay relative to control; assay type: functional; conditions: Bcap37, 72 h, read-out: GI
[7] = Antiproliferative against human BGC823 cells assessed as growth inhibition after 72 hrs by MTT assay; assay type: functional, cell-based; conditions: BGC-823, 72 h
[8] = Antiproliferative against human BGC823 cells assessed as growth inhibition at 10 uM after 72 hrs by MTT assay relative to control; assay type: functional; conditions: BGC-823, 72 h, read-out: GI

| Compound | inhibition of growth at 1 µM [1] | IC50 [2] | inhibition of growth at 10 µM [3] | inhibition of growth at 1 µM [4] | inhibition of growth at 1 µM [5] | inhibition of growth at 10 µM [6] | IC50 [7] | inhibition of growth at 10 µM [8] |
| --- | --- | --- | --- | --- | --- | --- | --- | --- |
| COc1cccc2c1C(=O)c1c(O)c3c(c(O)c1C2=O)C[C@@](O)(C(=O)CO)C[C@@H]3O[C@H]1C[C@H](N)[C@H](O)[C@H](C)O1 [DOXORUBICIN] | 88.2% | 2000 nM | 94.7% | 90.7% | 84.2% | 93.1% | 2600 nM | 95.9% |
| CC[C@@]1(O)C(=O)OCc2c1cc1n(c2=O)Cc2cc3cc(O)ccc3nc2-1 [HYDROXYCAMPTOTHECIN] | 17.1% |  | 37% | 7.3% | 8.8% | 33.5% |  | 26.5% |
